Data set [1] relates to Panc02.13 cells expressing the YAPS6A mutant. In words: 3D spheroid growth assay, Panc02.13 cells expressing YAPS6A. It is filed as cell-based, human. Particulars: YAP activity increased.
Data set [2] concerns cancer cell lines harboring Hippo pathway genetic alterations. In words: 3D spheroid growth assay, cell lines with Hippo pathway alterations. The conditions noted are these: cell lines from five diverse cancer types. It is filed as cell-based. The source says: Genetic defects that inhibit the Hippo pathway can induce tumors in model organisms. Such mutations occur in a broad range of human carcinomas, including lung, mesothelioma, colorectal, ovarian and liver cancers (Harvey et al., 2013) (Table S3). Mutations in NF2 and LATS2 are found in ˜30% of mesotheliomas and mutations in STK11 are found in 18% of lung cancers (Table S3). Previous studies have shown that aberrations in LATS2 and NF2 inactivate the Hippo pathway and overcome crowding-mediated YAP inhibition (Murakami et al., 2011). Despite the oncogenic effect of Hippo pathway mutations, the above studies would predict that the same inactivating mutations in the Hippo pathway genes (NF2, LATS2, STK11) could have an important effect, which can be exploited in chemotherapy: they might be hypersensitive to gemcitabine even in highly crowded conditions and increase the effectiveness of treatment. […] Furthermore, previous studies have shown that mutations in STK11 (LKB1) in lung cancer cell lines confer sensitivity to gemcitabine while ectopic expression of STK11 causes resistance (Xia et al., 2014; Yang, 2014). STK11 has been identified as an upstream kinase that negatively regulates YAP activity (Mohseni et al., 2014). […] Genetic aberrations in the Hippo pathway can be predictive biomarkers for response to gemcitabine.

The test system of data set [3] is Panc02.13 cells expressing YAPS6A. In words: Gemcitabine and dFdU efflux by LC-MS/MS, Panc02.13 YAPS6A vs GFP. It is filed as in vitro ADME, human. Particulars: less efflux in YAPS6A (Hippo-OFF), p<0.05. The source says:
It was considered whether the Hippo pathway might affect the efflux of gemcitabine and/or its metabolites. To assess directly gemcitabine efflux in conditioned media of pancreatic cancer cells both radiolabeled gemcitabine and LC-MS/MS-based methods were used. Panc02.13 cells grown in highly crowded conditions (Hippo-ON) pumped out 2-3-fold more radiolabeled gemcitabine (counts per μg protein) compared with cells grown in less crowded conditions (Hippo-OFF) (FIG. 22A). Another pathway of inactivation and export is the enzymatic conversion of gemcitabine to a uracil derivative (2′,2′-difluorodeoxyuridine, dFdU) by deamination catalyzed by cytidine deaminase (CDA)(Veltkamp et al., 2008). The efflux of gemcitabine and its deaminated metabolite, dFdU was measured by LC-MS/MS (24) in Panc02.13 cells expressing YAPS6A or vector control after gemcitabine treatment (FIG. 22B).

Data set [4] has as its system Miapaca2-GFP xenografts. The data set is described as follows: Mouse xenograft, Miapaca2-GFP. Particulars: i.p., alternate days for two weeks. It is filed as in vivo. As to the method: To assess the gemcitabine response to Hippo pathway inactivation in tumors a mouse xenograft model of pancreatic carcinoma cells and patient-derived xenograft (PDX) models from a variety of solid tumors including human cancers from non-small cell lung, esophagus, breast, mesothelium, ovary, colon, head and neck, sarcoma, and cholangiocarcinoma were used (FIG. 30). In mouse xenograft studies, two human pancreatic cancer cell lines (Miapac2 and Panc02.13) expressing GFP or YAPS6A were injected into athymic mice. Both parental or GFP expressing cells grew rapidly, producing palpable tumors in 5-10 days. When the tumors were ˜200 mm^3 (as measured using a caliper), mice were randomized into treatment and control groups. The […] received i.p. saline injections on alternate days for two weeks, and the latter received gemcitabine (20 mg/kg in Miapaca2-YAPS6A and 50 mg/Kg in Panc02.13-YAPS6A cohorts).
Tumorigenicity in Nude Mice. All in vivo experiments were performed using 6-week-old to 8-week-old athymic nude mice. Mice were maintained in laminar flow rooms with constant temperature and humidity. Miapaca2 or Panc02.13 cells were inoculated subcutaneously (s.c.) into each flank of the mice. […] Tumor volumes (V) were calculated using the formula: V=AB2/2 (A, axial diameter; B, rotational diameter). […]

Data set [5] deals with Panc02.13-YAPS6A xenografts. In words: Mouse xenograft, Panc02.13-YAPS6A. It is filed as in vivo. Particulars: 50 mg/Kg, alternate days for two weeks.
Description: In mouse xenograft studies, two human pancreatic cancer cell lines (Miapac2 and Panc02.13) expressing GFP or YAPS6A were injected into athymic mice. […] When the tumors were ˜200 mm^3 (as measured using a caliper), mice were randomized into treatment and control groups. The former received i.p. saline injections on alternate days for two weeks, and the latter received gemcitabine (20 mg/kg in Miapaca2-YAPS6A and 50 mg/Kg in Panc02.13-YAPS6A cohorts).
Tumorigenicity in Nude Mice. All in vivo experiments were performed using 6-week-old to 8-week-old athymic nude mice. Mice were maintained in laminar flow rooms with constant temperature and humidity. […] Cells (2×10^6 in suspension) were injected on day 0, and tumor growth was followed every 2 to 3 days by tumor diameter measurements using vernier calipers. Tumor volumes (V) were calculated using the formula: V=AB2/2 (A, axial diameter; B, rotational diameter). When the outgrowths were • 200 mm^3, mice were divided at random into two groups (control and treated, n=3-8). The treated group received gemcitabine injection or saline control on alternate days (MWF) for 2 weeks.
The test system of data set [6] is patient-derived xenograft (PDX) models. The data set is described as follows: Patient-derived xenograft (PDX) models, tumor growth inhibition. It is filed as in vivo, mouse. The conditions noted are these: 20 PDX models, p=0.01. The source says:
An alternative to an endogenous mouse models for capturing effects of the tumor environment are patient-derived xenograft (PDX) models. […] At the cellular level, PDX models also preserve the intra-tumoral heterogeneity, as well as the molecular characteristics of the original cancer, including copy number variants, single-nucleotide polymorphisms, and gene expression profiles (Choi et al., 2014; DeRose et al., 2011). […] When patient-derived xenograft PDX models were used to assess whether YAP activation sensitizes solid tumors to gemcitabine significant effects were found. The studies were performed in the following manner: Tumor fragments (around 64 mm^3) were implanted into the flanks of recipient mice and tumor dimensions recorded with digital calipers. Once tumor implants reached a volume of approximately 200 mm3, dosing with gemcitabine (or vehicle control) began. At the completion of the study completion, the percent tumor growth inhibition (% TGI) was calculated for gemcitabine (G) and the vehicle control (C) using initial (i) and final (f) tumor measurements by the formula: % TGI=[1−(Gf−Gi)/(Cf−Ci)]x100.
Patient-derived xenograft (PDX) models. PDX models were established by Champions Oncology (Baltimore, Md.) as described previously (Khor et al., 2015). Drug response to 20 PDX models was obtained from Champions TumorGraft® Database (available on the world wide web at database.championsoncology.com/).
Immunohistochemistry. Human primary tumor tissue slides were obtained from Champions Oncology (Baltimore, Md.). Immunohistochemistry using anti YAP1 antibody (Abcam Cat # ab52771) was performed as previously described (Shi et al., 1999). For negative controls, primary antibody was omitted. The intensity of YAP staining was assessed by an independent pathologist using a four-grade scale: “0” is negative. “0.5” is borderline staining with no significance. “1” is weak staining. “1.5” is weak staining with foci of moderate staining. “2” is moderate staining. […] YAP scoring index was calculated based on staining intensity * % of positive target cells.

Structures can show the parent of a compound that is named as a salt. A value given as a limit tells only on which side of the number the result lay.

We go through one compound from patent US20200216906A1, “METHODS AND COMPOSITIONS RELATING TO THE DIAGNOSIS AND TREATMENT OF CANCER” (PRESIDENT AND FELLOWS OF HARVARD COLLEGE, priority 2015, published 2020).

The term EC50 denotes the concentration at which the effect is half-maximal.

For `Nc1ccn([C@@H]2O[C@H](CO)[C@@H](O)C2(F)F)c(=O)n1` [Gemcitabine, Gemcitabine hydrochloride], the “Efficacy in inhibiting cell growth when the Hippo pathway was inhibited” value in data set [1] is recorded as “increased efficacy in inhibiting cell growth”. In addition, the EC50 in data set [2] was below 1000 nM. Moreover, the “Gemcitabine effluxed, YAPS6A vs GFP expressing cells” value in data set [3] is recorded as 10 fold. Besides, the Growth of xenografts entry in data set [4] is given as “no affect”. The Tumor volume entry in data set [5] is reported as “significant regression”. For the same compound, the “Difference in % TGI, high vs low YAP activity tumors” value in data set [6] was around 2 fold.
